The target of this test is T1, bovine factor Xa (Bos taurus, UniProt P00743).
T1 construct: (bovine factor Xa); purchased Stago (Diagnostica Stago) STA®—Liquid Anti-Xa commercial kit (catalogue number not given)
Description: competitive enzymatic assay, enzyme-substrate reaction (universal methodology, STA-Liquid Anti-Xa kit). The test is classed as biochemical. The settings on record: bovine factor Xa [E]≈10 nM, substrate [S]≈482 μM, 37° C. The procedure:
In accordance with this particular embodiment, the in vitro measurement for the detection, the identification, and the quantification of synthetic inhibitors of factor Xa was carried out in accordance with the following principle: • 25 μL of a plasma sample suspected of containing a heparin or an anti-Xa DOAC was diluted in 25 μL of Owren Koller buffer (TOK), then placed in a consumable; • 150 μL of “Substrate” reagent (MAPA-Gly-Arg-pNA) (reagent in the STA®—Liquid Anti-Xa commercial kit) specific for factor Xa was added to the reaction mixture; • an incubation step of 240 seconds raised the reaction mixture to 37° C.; • 150 μL of the reagent “F. Xa” (bovine factor Xa) (reagent in the STA®—Liquid Anti-Xa commercial kit) was added to the reaction mixture, thereby initiating competition between the inhibition reaction and the enzymatic reaction; • the measurement per se was then carried out over 156 seconds: factor Xa transforms the substrate into product while at the same time being inhibited by the heparin or the DOAC if they are present in the sample. […]

T1 sequence (P00743 234-492 limits assumed): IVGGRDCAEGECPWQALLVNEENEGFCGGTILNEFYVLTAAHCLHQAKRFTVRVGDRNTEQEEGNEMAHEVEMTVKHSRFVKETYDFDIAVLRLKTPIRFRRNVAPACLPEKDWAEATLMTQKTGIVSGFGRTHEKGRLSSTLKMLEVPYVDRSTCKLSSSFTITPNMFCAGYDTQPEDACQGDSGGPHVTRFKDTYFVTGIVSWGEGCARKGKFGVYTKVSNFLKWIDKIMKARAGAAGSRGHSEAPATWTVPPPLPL
T1 sequence (P00743 41-180 limits assumed): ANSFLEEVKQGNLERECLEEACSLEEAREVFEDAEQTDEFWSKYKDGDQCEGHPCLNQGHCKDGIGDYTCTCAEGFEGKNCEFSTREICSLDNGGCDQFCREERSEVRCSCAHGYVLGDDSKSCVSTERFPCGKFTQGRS

Turning to MAPA-Gly-Arg-pNA, the “Michaelis constant KM associated with the enzyme-substrate reaction” value is roughly 500 µM and the “catalytic constant kcat associated with the enzyme-substrate reaction” value is “approximately 400 s-1”.

(Values after US12473584B2, “Method for detecting the presence, identification and quantification in a blood sample of anticoagulants which are blood coagulation enzymes inhibitors, and means for the implementation thereof” (DIAGNOSTICA STAGO, priority 2018, dated 2025).)
